Experimental data reported in ChEMBL document CHEMBL1201862, “PubChem BioAssay data set” (2004).
Active and inactive are the calls of the source.

Columns and labels:
[1] = Artemis endonuclease inhibitor potency, dose response, biochemical, fluorescence intensity (AID 720701); format: functional;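 further: Artemis endonuclease enzyme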
[2] = HEp-2 cell cytotoxicity, dose response, cytotoxicity control for RSV inhibitor project, HTS (AID 2410); format: functional; conditions: human respiratory syncytial virus
[3] = THP-1 cell cytotoxicity, dose response, cytotoxicity control for Vif-APOBEC3G degradation inhibitor project, THP-1 cells (AID 1117359); format: functional; conditions: Human immunodeficiency virus 1, THP-1
[4] = molecular target: T1, Histone-lysine N-methyltransferase NSD2 (Homo sapiens, UniProt O96028); format: biochemical
T1 sequence (O96028 whole entry): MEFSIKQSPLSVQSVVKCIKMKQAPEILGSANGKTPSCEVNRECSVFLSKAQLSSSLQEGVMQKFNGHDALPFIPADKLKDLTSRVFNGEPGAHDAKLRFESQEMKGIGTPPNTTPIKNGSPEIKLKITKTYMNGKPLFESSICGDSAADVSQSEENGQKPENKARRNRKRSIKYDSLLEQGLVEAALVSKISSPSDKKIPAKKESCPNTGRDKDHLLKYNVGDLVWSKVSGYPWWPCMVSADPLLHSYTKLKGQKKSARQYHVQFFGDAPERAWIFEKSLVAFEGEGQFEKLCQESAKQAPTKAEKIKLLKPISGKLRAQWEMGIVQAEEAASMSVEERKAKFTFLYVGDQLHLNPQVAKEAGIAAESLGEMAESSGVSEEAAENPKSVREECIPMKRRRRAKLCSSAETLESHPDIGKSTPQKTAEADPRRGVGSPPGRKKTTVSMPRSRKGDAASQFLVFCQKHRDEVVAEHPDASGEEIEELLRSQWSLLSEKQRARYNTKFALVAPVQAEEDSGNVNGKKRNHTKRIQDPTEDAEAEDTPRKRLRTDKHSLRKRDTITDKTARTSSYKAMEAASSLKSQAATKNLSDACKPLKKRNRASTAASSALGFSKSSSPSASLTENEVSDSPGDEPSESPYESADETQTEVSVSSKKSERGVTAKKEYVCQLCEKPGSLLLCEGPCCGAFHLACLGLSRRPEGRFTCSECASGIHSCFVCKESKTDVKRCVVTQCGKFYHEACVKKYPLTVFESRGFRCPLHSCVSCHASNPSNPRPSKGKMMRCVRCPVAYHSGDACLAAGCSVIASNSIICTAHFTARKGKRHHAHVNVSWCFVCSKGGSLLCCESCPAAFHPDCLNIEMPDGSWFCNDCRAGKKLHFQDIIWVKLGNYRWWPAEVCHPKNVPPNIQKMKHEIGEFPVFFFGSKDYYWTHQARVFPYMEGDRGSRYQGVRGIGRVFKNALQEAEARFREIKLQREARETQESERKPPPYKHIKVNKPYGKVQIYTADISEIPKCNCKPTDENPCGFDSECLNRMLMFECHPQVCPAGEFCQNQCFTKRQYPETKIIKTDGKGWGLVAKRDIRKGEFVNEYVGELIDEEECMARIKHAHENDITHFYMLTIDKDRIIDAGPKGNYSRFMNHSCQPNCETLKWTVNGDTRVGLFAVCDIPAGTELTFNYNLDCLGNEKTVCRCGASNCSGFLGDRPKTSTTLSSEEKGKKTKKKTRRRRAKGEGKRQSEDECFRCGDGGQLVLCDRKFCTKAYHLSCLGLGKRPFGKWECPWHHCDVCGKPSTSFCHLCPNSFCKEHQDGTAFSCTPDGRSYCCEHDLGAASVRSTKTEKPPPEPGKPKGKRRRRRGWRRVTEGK

[5] = P. falciparum late gametocyte killing, dose response, luminescence (AID 1117278); format: functional, cell-based;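 further: gametocytes exposed to compound for 24 hours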
[6] = Jurkat T cell cytotoxicity, dose response, cytotoxicity control for P. falciparum gametocyte viability project, luminescence (AID 1117277); format: functional, cell-based;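 further: potency reflects loss of cellular ATP meaning fewer viable cells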
[7] = molecular target: Mitogen-activated protein kinase 10 (Homo sapiens, UniProt P53779); assay: Dose response biochemical screening assay for inhibitors of c-Jun N-Terminal Kinase 3 (JNK3). [Related pubchem assays: 746 ]
Sequence of Mitogen-activated protein kinase 10 (P53779 whole entry): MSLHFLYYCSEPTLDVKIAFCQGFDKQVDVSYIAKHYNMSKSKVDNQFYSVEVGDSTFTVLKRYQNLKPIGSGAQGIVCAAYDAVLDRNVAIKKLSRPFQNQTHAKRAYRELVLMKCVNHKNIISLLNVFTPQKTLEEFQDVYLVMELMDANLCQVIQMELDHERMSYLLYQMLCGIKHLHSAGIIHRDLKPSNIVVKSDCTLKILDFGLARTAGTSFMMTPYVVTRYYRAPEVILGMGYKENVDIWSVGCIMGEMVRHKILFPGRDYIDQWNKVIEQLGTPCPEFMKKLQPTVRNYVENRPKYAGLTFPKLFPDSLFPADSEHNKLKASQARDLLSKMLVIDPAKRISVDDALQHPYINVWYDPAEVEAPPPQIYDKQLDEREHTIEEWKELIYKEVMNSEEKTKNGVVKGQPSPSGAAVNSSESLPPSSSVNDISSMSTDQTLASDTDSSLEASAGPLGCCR

[8] = molecular target: T2, 1-phosphatidylinositol 4,5-bisphosphate phosphodiesterase gamma-1 (Homo sapiens, UniProt P19174); assay: Counterscreen for inhibitors of phospholipase C isozymes (PLC-B3): Fluorescence-based biochemical high throughput dose response assay to identify inhibitors of phospholipase C isozymes (PLC-gamma1).
T2 sequence (P19174 whole entry): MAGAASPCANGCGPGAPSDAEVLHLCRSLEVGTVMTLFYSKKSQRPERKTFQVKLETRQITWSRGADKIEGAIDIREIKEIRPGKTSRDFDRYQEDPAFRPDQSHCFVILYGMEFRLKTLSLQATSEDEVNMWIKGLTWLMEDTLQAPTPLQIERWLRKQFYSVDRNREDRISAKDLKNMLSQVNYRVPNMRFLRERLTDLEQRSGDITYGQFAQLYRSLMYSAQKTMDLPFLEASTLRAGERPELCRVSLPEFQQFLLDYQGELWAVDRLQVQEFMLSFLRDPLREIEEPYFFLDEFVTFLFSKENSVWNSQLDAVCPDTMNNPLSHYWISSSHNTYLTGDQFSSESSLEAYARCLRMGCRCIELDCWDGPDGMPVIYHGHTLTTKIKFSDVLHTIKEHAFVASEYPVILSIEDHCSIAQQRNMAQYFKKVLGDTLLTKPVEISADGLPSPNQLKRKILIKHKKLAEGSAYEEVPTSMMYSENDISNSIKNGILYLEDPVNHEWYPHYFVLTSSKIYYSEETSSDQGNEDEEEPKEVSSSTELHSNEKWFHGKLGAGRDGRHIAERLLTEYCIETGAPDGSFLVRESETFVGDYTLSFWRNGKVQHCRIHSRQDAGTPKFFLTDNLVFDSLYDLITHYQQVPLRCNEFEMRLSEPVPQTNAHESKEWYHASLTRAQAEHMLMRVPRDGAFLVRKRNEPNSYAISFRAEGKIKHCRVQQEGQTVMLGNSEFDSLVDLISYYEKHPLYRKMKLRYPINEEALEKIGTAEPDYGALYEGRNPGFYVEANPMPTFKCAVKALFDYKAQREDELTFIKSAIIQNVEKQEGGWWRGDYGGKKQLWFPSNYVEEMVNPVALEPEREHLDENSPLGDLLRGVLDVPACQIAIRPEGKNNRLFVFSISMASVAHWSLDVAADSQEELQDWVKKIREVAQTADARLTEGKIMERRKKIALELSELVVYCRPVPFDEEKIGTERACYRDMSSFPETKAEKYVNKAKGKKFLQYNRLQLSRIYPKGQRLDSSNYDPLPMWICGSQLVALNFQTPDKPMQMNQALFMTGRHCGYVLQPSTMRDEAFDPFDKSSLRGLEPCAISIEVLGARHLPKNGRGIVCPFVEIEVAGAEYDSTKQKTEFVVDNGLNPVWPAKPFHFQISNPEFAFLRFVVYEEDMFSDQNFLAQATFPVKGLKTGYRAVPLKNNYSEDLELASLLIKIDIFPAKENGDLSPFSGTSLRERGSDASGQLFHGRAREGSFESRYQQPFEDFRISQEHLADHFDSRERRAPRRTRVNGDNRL

[9] = molecular target: T3, 1-phosphatidylinositol 4,5-bisphosphate phosphodiesterase beta-3 (Homo sapiens, UniProt Q01970); assay: Fluorescence-based biochemical high throughput dose response assay to identify inhibitors of phospholipase C isozymes (PLC-B3).
T3 sequence (Q01970 whole entry): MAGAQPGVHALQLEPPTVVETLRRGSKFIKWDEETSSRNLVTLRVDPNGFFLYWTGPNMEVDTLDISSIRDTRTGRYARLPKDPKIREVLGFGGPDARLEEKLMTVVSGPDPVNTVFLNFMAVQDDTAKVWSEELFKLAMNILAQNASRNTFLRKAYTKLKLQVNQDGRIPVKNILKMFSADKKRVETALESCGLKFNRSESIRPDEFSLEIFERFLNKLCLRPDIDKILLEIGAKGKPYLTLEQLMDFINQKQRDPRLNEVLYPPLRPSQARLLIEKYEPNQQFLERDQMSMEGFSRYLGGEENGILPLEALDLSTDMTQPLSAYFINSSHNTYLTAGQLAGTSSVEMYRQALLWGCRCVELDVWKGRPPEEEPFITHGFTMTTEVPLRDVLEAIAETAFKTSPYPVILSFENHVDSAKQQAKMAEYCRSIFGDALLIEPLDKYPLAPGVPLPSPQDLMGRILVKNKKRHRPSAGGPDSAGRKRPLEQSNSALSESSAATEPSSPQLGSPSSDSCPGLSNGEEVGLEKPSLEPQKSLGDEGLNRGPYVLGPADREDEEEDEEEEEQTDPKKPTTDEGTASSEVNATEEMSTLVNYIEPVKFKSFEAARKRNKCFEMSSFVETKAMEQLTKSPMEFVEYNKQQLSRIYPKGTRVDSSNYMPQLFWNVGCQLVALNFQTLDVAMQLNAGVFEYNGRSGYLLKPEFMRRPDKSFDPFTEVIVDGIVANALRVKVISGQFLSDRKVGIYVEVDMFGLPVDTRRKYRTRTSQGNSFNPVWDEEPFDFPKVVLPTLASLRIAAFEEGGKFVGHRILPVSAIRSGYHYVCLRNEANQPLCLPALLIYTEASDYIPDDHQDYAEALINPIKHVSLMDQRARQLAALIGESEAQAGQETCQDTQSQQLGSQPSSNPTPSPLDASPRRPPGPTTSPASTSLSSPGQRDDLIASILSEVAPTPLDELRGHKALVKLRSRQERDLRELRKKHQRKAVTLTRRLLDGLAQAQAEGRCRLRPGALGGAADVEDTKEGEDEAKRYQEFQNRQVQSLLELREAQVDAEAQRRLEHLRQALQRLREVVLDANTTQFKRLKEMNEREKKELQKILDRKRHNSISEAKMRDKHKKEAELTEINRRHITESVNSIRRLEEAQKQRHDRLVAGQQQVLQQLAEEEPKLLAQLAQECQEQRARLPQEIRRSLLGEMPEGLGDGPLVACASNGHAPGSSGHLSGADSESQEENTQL

Estrogen receptor beta [10] = molecular target: T4, Estrogen receptor beta (Homo sapiens, UniProt Q92731);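 further: recombinant ER-beta bound to coactivator SRC1 peptide in presence of estradiol agonist; inhibitors block coactivator peptide binding and lower the FRET signal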
T4 sequence (Q92731 whole entry): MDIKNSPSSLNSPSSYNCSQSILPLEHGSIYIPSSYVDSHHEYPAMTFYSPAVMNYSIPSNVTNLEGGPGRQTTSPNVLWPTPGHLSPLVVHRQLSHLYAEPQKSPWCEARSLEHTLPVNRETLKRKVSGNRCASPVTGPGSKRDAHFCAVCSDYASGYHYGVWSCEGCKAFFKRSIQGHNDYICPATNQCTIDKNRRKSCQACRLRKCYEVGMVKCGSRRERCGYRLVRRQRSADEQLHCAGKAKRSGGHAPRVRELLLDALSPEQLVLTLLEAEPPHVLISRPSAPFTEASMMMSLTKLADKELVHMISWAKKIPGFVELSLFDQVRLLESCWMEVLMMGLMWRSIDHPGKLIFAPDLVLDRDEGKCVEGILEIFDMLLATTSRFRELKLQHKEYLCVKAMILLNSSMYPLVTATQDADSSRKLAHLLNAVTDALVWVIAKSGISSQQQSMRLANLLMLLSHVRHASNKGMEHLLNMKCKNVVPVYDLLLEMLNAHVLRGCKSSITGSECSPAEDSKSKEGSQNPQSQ

Estrogen receptor beta [11] = molecular target: T4, Estrogen receptor beta; assay: ERβ–SRC-3 coactivator interaction inhibitors, confirmation, orthogonal assay, biochemical, ELISA, streptavidin-HRP readout (AID 1060)
[12] = molecular target: DNA dC->dU-editing enzyme APOBEC-3A (Homo sapiens, UniProt P31941); assay: Dose Response confirmation of small molecule APOBEC3A DNA Deaminase Inhibitors via a fluorescence-based single-stranded DNA deaminase assay. [Related pubchem assays (depositor defined):AID493011, AID493024]; format: functional
Sequence of DNA dC->dU-editing enzyme APOBEC-3A (P31941 whole entry): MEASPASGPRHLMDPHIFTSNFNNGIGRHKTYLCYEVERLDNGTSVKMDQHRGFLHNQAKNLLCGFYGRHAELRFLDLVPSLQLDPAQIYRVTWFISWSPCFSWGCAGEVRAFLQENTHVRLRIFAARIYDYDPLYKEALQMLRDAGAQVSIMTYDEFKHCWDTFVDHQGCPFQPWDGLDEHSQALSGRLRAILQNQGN

[13] = molecular target: DNA dC->dU-editing enzyme APOBEC-3G (Homo sapiens, UniProt Q9HC16); format: functional;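 further: Dose-response counterscreen measuring inhibition of APOBEC3G DNA deaminase activity, run while confirming APOBEC3A inhibitors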
Sequence of DNA dC->dU-editing enzyme APOBEC-3G (Q9HC16 whole entry): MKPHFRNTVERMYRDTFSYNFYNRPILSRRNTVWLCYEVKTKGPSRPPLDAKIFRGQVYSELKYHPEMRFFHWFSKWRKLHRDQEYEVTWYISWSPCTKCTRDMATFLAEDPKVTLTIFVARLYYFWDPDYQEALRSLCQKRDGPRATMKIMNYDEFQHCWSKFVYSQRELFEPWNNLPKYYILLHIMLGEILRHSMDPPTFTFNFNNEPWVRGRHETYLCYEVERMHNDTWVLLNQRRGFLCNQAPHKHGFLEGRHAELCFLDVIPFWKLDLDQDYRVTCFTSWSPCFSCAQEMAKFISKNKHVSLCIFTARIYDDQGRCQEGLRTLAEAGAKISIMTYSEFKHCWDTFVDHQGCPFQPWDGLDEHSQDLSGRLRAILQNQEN

[14] = Luminescence Cell-Based Dose Retest to Confirm Inhibitors of Cancer Stem Cells. [Related pubchem assays (depositor defined):AID2717, AID2721]; format: functional; conditions: Homo sapiens
INS1 = assay: beta cell apoptosis inhibitors, cytokine rescue, dose response, luminescence, retest (AID 449756); format: functional, cell-based; conditions: Rattus norvegicus;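 further: cell death triggered by IL-1 beta plus TNF-alpha plus IFN-gamma mixture; protective hits raise ATP signal compared with cytokine alone wells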
Paired box protein Pax-8 = Paired box protein Pax-8 (Homo sapiens, UniProt Q06710); assay: inhibitors of PAX8-driven TPO luciferase reporter, dose response, RMG-I cells, cherry-pick (AID 687027); format: functional, cell-based;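 further: luciferase reporter driven by Pax8 target thyroperoxidase promoter measured by SteadyGlo luminescence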
Sequence of Paired box protein Pax-8 (Q06710 whole entry): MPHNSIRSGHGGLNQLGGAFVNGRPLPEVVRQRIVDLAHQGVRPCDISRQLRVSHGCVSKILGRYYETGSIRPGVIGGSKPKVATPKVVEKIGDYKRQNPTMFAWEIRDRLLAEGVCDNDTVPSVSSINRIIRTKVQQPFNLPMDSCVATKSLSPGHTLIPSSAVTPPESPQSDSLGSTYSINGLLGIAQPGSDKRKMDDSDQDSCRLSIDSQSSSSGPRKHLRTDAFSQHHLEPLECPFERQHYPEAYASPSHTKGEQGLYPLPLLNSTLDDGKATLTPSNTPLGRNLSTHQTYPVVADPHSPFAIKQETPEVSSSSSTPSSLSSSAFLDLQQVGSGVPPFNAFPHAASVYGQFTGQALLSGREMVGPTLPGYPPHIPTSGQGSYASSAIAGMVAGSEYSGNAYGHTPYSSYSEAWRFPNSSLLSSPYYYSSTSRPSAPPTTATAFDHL

[15] = non-specific cell cytotoxicity, dose response, cytotoxicity control for PAX8 inhibitor project, plate reader, dry powder samples (AID 743021); format: functional, cell-based
[16] = NIH:OVCAR-3 ovarian cancer cell cytotoxicity, dose response, PAX8 inhibitor project, plate reader, dry powder samples (AID 743044); format: functional, cell-based
[17] = cytotoxicity in OVCAR8 ovarian cancer cells, dose response, PAX8 project, cell-based, plate reader, dry powder samples (AID 743197); format: functional; conditions: OVCAR-8

CCOC(=O)N1CCN(Cc2nc(N)nc(Nc3ccc(Oc4ccccc4)cc3)n2)CC1
IC50 [1]: > 20 µM (inactive)

CCN=c1ccc(Br)cc(C(=O)/C=C/c2ccc3c(c2)OCO3)c1O
CC50 [2]: 13.8 µM (active)
IC50 [1]: > 20 µM (inactive)
CC50 [3]: 32.6 µM (active)

CCCCCNc1nc(NCCCO)c(C#N)c2c1CN(C)CC2
AC50 [4]: > 20 µM (inactive)
IC50 [5]: > 109 µM (inactive)
IC50 [6]: > 83.3 µM (inactive)

CCOC(=O)CSc1nc2c(sc3ccccc32)c(=O)n1CCCN1CCOCC1
IC50 [7]: 40 µM (not active)

O=C(NCc1ccccc1)c1[nH]nnc1-c1ccccc1O
IC50 [8]: 108 µM (inactive)
IC50 [9]: > 122 µM (inactive)

O=C1N=C(S)SC1=C1CCCC1
IC50 (Estrogen receptor beta [10]): > 50 µM (not active)
IC50 (Estrogen receptor beta [11]): 0.24 µM (not active)
IC50 [12]: 5.61 µM (active)
IC50 [13]: 7.39 µM (active)
IC50 [8]: 47.5 µM (inactive)
IC50 [9]: > 122 µM (inactive)

COC(=O)c1c(NC(=O)Cc2cccs2)sc(C)c1C
IC50 [7]: 34.8 µM (not active)

CCOC(=O)c1c(NC(=O)CSc2nnc(-c3ccco3)o2)sc(C)c1C
IC50 [5]: > 109 µM (inactive)
IC50 [6]: > 83.3 µM (inactive)

O=c1[nH]c(=S)c2c(n1-c1ccccc1)CCC2
IC50 [7]: 76 µM (not active)

FC(F)(F)c1cnc(Oc2ccccc2-c2nnc(-c3ccc(Cl)cc3)o2)c(Cl)c1
IC50 [8]: > 123 µM (inactive)
IC50 [9]: > 123 µM (inactive)

Cc1nnc2sc(SCC(=O)Nc3ccc(Br)cc3)nn2c1=O
IC50 [5]: > 109 µM (inactive)
IC50 [6]: > 83.3 µM (inactive)

O=C(C[C@@H]1C/C=C/CC[C@H](Cc2ccc(F)cc2)C(=O)OC[C@@H](Cc2ccccc2)NC1=O)N[C@H](CO)Cc1ccccc1
AC50 [14]: 0.956 µM (active)
AC50 (INS1): 5 µM (active)
AC50 (Paired box protein Pax-8): 15 µM (active)
AC50 [15]: 33.4 µM (active)

C[C@@H]1CCCCO[C@H](CN(C)Cc2ccc(C(F)(F)F)cc2)[C@H](C)CN([C@H](C)CO)C(=O)c2cc(NC(=O)c3ccccc3)ccc2O1
AC50 (Paired box protein Pax-8): 10.1 µM (active)
AC50 [16]: 43.7 µM (active)
AC50 [17]: 45.2 µM (active)
